# Experimental data taken from EP4768484A1, “HETEROCYCLIC FUSED RING COMPOUND, AND COMPOSITION AND USE THEREOF” (Shenzhen TargetRx, Inc., priority 2023, dated 2025).
# Assays:
# Format in all cases: cell-based
# K562 cells = test: Cell growth inhibitory activity assay (CellTiter-Glo), K562 cells; conditions: Homo sapiens, 72 h, CTG cell viability
# Outline: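 K562 cells in logarithmic growth were counted, diluted and plated in 96-well plates, with medium-only blanks and a separate T0 plate read by CTG the following day. After overnight incubation, graded compound concentrations were added for 72 h, with 0.5% DMSO wells as growth controls. Luminescence was read on a Biotek cytation3.0, and IC50 came from nonlinear fitting in GraphPad Prism 7.0.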
# Ba/F3 BCR-ABL1 WT = molecular target: T1, Ba/F3 BCR-ABL1 WT (Homo sapiens, UniProt P00519+P11274); test: Cell growth inhibitory activity assay (CellTiter-Glo), Ba/F3 BCR-ABL1 WT cells; conditions: 72 h, CTG cell viability
# T1 construct: BCR (N-terminal fusion partner of the oncoprotein); expressed in transfected cells; host or cells: Ba/F3 (lentiviral transduction, monoclonal line)
# Outline: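 Ba/F3 lines stably transduced by lentivirus with WT or mutant BCR-ABL1, alongside untransduced parental Ba/F3, were seeded and incubated overnight at 37 °C, 5% CO2, then exposed to serially diluted compound for 72 h. Viability was read as ATP by CellTiter-Glo luminescence against a day-of-dosing T0 plate; IC50 from four-parameter nonlinear fit.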
# Ba/F3 parental cells = test: Cell growth inhibitory activity assay (CellTiter-Glo), Ba/F3 parental cells; conditions: Mus musculus, BaF3, 72 h, CTG cell viability, read-out: IC50 Ba/F3 BCR-ABL1 Parental
# Outline: (§1)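 IC50 values come from nonlinear fitting of % inhibition against log concentration, with viability taken as ATP content by CellTiter-Glo. Parental Ba/F3 or Ba/F3 monoclonal lines expressing lentivirally introduced mutant BCR-ABL1 were dosed for 72 h; controls included 0.5% DMSO wells and a T0 plate.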
# Ba/F3 BCR-ABL1 T315I = molecular target: T2, Ba/F3 BCR-ABL1 T315I (Homo sapiens, UniProt P00519+P11274, T315I); test: Cell growth inhibitory activity assay (CellTiter-Glo), Ba/F3 BCR-ABL1 T315I cells; conditions: 72 h, CTG cell viability
# T2 construct: BCR (N-terminal fusion partner of the oncoprotein); expressed in transfected cells; host or cells: Ba/F3 (lentiviral transduction, monoclonal line)
# Outline: as §1
SMILES,IC50 (K562 cells) [nM],IC50 (Ba/F3 BCR-ABL1 WT) [nM],IC50 (Ba/F3 parental cells) [nM],IC50 (Ba/F3 BCR-ABL1 T315I) [nM]
C[C@@H]1COCc2nc3cc(C(=O)Nc4ccc(OC(F)(F)Cl)cc4)cc(-c4cnc5c(c4)-c4nn(-c6ccncc6)cc4C5)c3n21 [T-64],≤ 5,≤ 5,> 1000,> 1000
"COc1cccc(-c2ccnc(-n3cc4c(n3)-c3cc(-c5cc(C(=O)Nc6ccc(OC(F)(F)Cl)cc6)cc6nc7n(c56)[C@H](C)COC7)cnc3C4)n2)c1F [T-93, (R)-N-(4-(chlorodifluoromethoxy)phenyl)-6-(2-(4-(2-fluoro-3-methoxyphenyl)pyrimidin-2-yl)-2,4-dihydropyrazolo[3',4':3,4]cyclopenta[1,2-b]pyridin-7-yl)-4-methyl-3,4-dihydro-1H-benzo[4,5]imidazo[2,1-c][1,4]oxazine-8-carboxamide]",≤ 5,≤ 5,> 1000,≤ 5
"COc1ncc(-c2ccnc(-n3cc4c(n3)-c3cc(-c5cc(C(=O)Nc6ccc(OC(F)(F)Cl)cc6)cc6nc7n(c56)[C@H](C)COC7)cnc3C4)n2)cc1F [T-97, (R)-N-(4-(chlorodifluoromethoxy)phenyl)-6-(2-(4-(5-fluoro-6-methoxyoyridin-3-yl)pyrimidin-2-yl)-2,4-dihydropyrazolo[3',4':3,4]cyclopenta[1,2-b]pyridin-7-yl)-4-methyl-3,4-dihydro-1H-benzo[4,5]imidazo[2,1-c][1,4]oxazine-8-carboxamide]",≤ 5,≤ 5,> 1000,≤ 5
"CC(=O)Nc1nc2c(s1)Cc1ccc(-c3cc(C(=O)Nc4ccc(OC(F)(F)Cl)cc4)cc4nc5n(c34)[C@H](C)COC5)cc1-2 [T-112, (R)-6-(2-acetamido-8H-indeno[1,2-d]thiazol-5-yl)-N-(4-(chlorodifluoromethoxy)phenyl)-4-methyl-3,4-dihydro-1H-benzo[4,5]imidazo[2,1-c][1,4]oxazine-8-carboxamide]",≤ 5,≤ 5,> 1000,5 to 50
"C[C@@H]1COCc2nc3cc(C(=O)Nc4ccc(OC(F)(F)Cl)cc4)cc(-c4cnc5c(c4)-c4nn(-c6nccc(-c7cccnc7F)n6)cc4C5)c3n21 [T-95, (R)-N-(4-(chlorodifluoromethoxy)phenyl)-6-(2-(4-(2-fluoropyridin-3-yl)pyrimidin-2-yl)-2,4-dihydropyrazolo[3',4':3,4]cyclopenta[1,2-b]pyridin-7-yl)-4-methyl-3,4-dihydro-1H-benzo[4,5]imidazo[2,1-c][1,4]oxazine-8-carboxamide]",≤ 5,≤ 5,> 1000,≤ 5
"CC1(C)C(=O)Nc2cc(C(=O)Nc3ccc(OC(F)(F)Cl)cc3)cc(-c3cnc4c(c3)-c3n[nH]cc3C4)c21 [T-122, N-(4-(chlorodifluoromethoxy)phenyl)-4-(2,4-dihydropyrazolo[3',4':3,4]cyclopenta[1,2-b]pyridin-7-yl)-3,3-dimethyl-2-oxoindoline-6-carboxamide]",≤ 5,≤ 5,> 1000,5 to 50
"CC(C)n1cc2c(n1)-c1cc(-c3cc(C(=O)Nc4ccc(OC(F)(F)Cl)cc4)cc4nc5n(c34)[C@H](C)COC5)ccc1C2 [T-110, (R)-N-(4-(chlorodifluoromethoxy)phenyl)-6-(2-isopropyl-2,4-dihydroindeno[1,2-c]pyrazol-7-yl)-4-methyl-3,4-dihydro-1H-benzo[4,5]imidazo[2,1-c][1,4]oxazine-8-carboxamide]",≤ 5,≤ 5,> 1000,5 to 50
"C[C@@H]1COCc2nc3cc(C(=O)Nc4ccc(OC(F)(F)Cl)cc4)cc(-c4cnc5c(c4)-c4nn(-c6nccc(-c7ccc(F)cc7)n6)cc4C5)c3n21 [T-89, (R)-N-(4-(chlorodifluoromethoxy)phenyl)-6-(2-(4-(4-fluorophenyl)pyrimidin-2-yl)-2,4-dihydropyrazolo[3',4':3,4]cyclopenta[1,2-b]pyridin-7-yl)-4-methyl-3,4-dihydro-1H-benzo[4,5]imidazo[2,1-c][1,4]oxazine-8-carboxamide]",≤ 5,≤ 5,> 1000,≤ 5

# The next lines start with results.
IC50 (K562 cells) [nM],SMILES,IC50 (Ba/F3 BCR-ABL1 WT) [nM],IC50 (Ba/F3 parental cells) [nM],IC50 (Ba/F3 BCR-ABL1 T315I) [nM]
≤ 5,"O=C(Nc1ccc(OC(F)(F)Cl)cc1)c1cnc(N2CC[C@@H](F)C2)c(-c2cnc3c(c2)-c2nn(-c4ncc5ccsc5n4)cc2C3)c1 [T-44, (R)-N-(4-(chlorodifluoromethoxy)phenyl)-6-(3-fluoropyrrolidin-1-yl)-5-(2-(thieno[2,3-d]pyrimidin-2-yl)-2,4-dihydropyrazolo[3',4':3,4]cyclopenta[1,2-b]pyridin-7-yl)nicotinamide]",≤ 5,> 1000,≤ 5
≤ 5,"C[C@@H]1COCc2nc3cc(C(=O)Nc4ccc(OC(F)(F)Cl)cc4)cc(-c4cnc5c(c4)C(=O)CC5)c3n21 [T-58, (R)-N-(4-(chlorodifluoromethoxy)phenyl)-4-methyl-6-(5-oxo-6,7-dihydro-5H-cyclopenta[b]pyridin-3-yl)-3,4-dihydro-1H-benzo[4,5]imidazo[2,1-c][1,4]oxazine-8-carboxamide]",≤ 5,> 1000,5 to 50
≤ 5,"O=C(Nc1ccc(OC(F)(F)Cl)cc1)c1cnc(N2CC[C@@H](F)C2)c(-c2cnc3c(c2)-c2nn(-c4ncccn4)cc2C3)c1 [T-5, (R)-N-(4-(chlorodifluoromethoxy)phenyl)-6-(3-fluoropvrrolidin-1-yl)-5-(2-(pyrimidin-2-yl)-2,4-dihydropyrazolo[3',4':3,4]cyclopenta[1,2-b]pyridin-7-yl)nicotinamide]",≤ 5,> 1000,≤ 5
≤ 5,"C[C@@H]1COCc2nc3cc(C(=O)Nc4ccc(OC(F)(F)Cl)cc4)cc(-c4ccc5c(c4)-c4n[nH]cc4C5)c3n21 [T-108, (R)-N-(4-(chlorodifluoromethoxy)phenyl)-6-(2,4-dihydroindeno[1,2-c]pyrazol-7-yl)-4-methyl-3,4-dihydro-1H-benzo[4,5]imidazo[2,1-c][1,4]xxazine-8-carboxamide]",≤ 5,> 1000,> 1000
≤ 5,"Cc1cnc(-n2cc3c(n2)-c2cc(-c4cc(C(=O)Nc5ccc(OC(F)(F)Cl)cc5)cc5nc6n(c45)[C@H](C)COC6)cnc2C3)nc1 [T-74, (R)-N-(4-(chlorodifluoromethoxy)phenyl)-4-methyl-6-(2-(5-methylpyrimidin-2-yl)-2,4-dihydropyrazolo[3',4':3,4]cyclopenta[1,2-b]pyridin-7-yl)-3,4-dihydro-1H-benzo[4,5]imidazo[2,1-c][1,4]oxazine-8-carboxamide]",≤ 5,> 1000,≤ 5
≤ 5,"CC1(C)C(=O)Nc2cc(C(=O)Nc3ccc(OC(F)(F)Cl)cc3)cc(-c3cnc4c(c3)-c3nn(-c5ncc(F)cn5)cc3C4)c21 [T-124, N-(4-(chlorodifluoromethoxy)phenyl)-4-(2-(5-fluoropyrimidin-2-yl)-2,4-dihydropyrazolo[3',4':3,4]cyclopenta[1,2-b]pyridin-7-yl)-3,3-dimethyl-2-oxoindoline-6-carboxamide]",≤ 5,> 1000,≤ 5
≤ 5,"O=C(Nc1ccc(OC(F)(F)Cl)cc1)c1cnc(N2CC[C@@H](F)C2)c(-c2cnc3c(c2)-c2nn(-c4ncc(C(F)(F)F)cn4)cc2C3)c1 [T-15, (R)-N-(4-(chlorodifluoromethoxy)phenyl)-6-(3-fluoropyrrolidin-1-yl)-5-(2-(5-(trifluoromethyl)pyrimidin-2-yl)-2,4-dihydropyrazolo[3',4':3,4]cyclopenta[1,2-b]pyridin-7-yl)nicotinamide]",≤ 5,> 1000,5 to 50
≤ 5,"CC(C)n1cnc2cc(C(=O)Nc3ccc(OC(F)(F)Cl)cc3)cc(-c3cnc4c(c3)-c3n[nH]cc3C4)c21 [T-119, N-(4-(chlorodifluoromethoxy)phenyl)-7-(2,4-dihvdropyrazolo[3',4':3,4]cyclopenta[1,2-b]pyridin-7-yl)-1-isopropyl-1H-benzo[d]imidazole-5-carboxamide]",≤ 5,> 1000,5 to 50
≤ 5,"O=C(Nc1ccc(OC(F)(F)Cl)cc1)c1cnc(N2CC[C@@H](F)C2)c(-c2cnc3c(c2)-c2n[nH]cc2C3)c1 [T-1, (R)-N-(4-(chlorodifluoromethoxy)phenyl)-5-(2,4-dihydropyrazolo[3',4':3,4]cyclopenta[1,2-b]pyridin-7-yl)-6-(3-fluoropyrrolidin-1-yl)nicotinamide]",≤ 5,> 1000,≤ 5
≤ 5,"C[C@@H]1COCc2nc3cc(C(=O)Nc4ccc(OC(F)(F)Cl)cc4)cc(-c4cnc5c(c4)-c4n[nH]cc4C5=O)c3n21 [T-60, (R)-N-(4-(chlorodifluoromethoxy)phenyl)-4-methyl-6-(4-oxo-2,4-dihydropyrazolo[3',4':3,4]cyclopenta[1,2-b]pyridin-7-yl)-3,4-dihydro-1H-benzo[4,5]imidazo[2,1-c][1,4]oxazine-8-carboxamide]",≤ 5,> 1000,> 1000
